Each block holds one molecule with its values, some of them ahead of it.
Target: T1, Bcl-2 protein (Recombinant Human Bcl-2 Protein) (Homo sapiens, UniProt P10415)
T1 construct: purchased Novus NBP2-34889
Assay: Binding evaluation of mixture library compounds to Bcl-2 using AS-MS (affinity selection mass spectrometry)
Details: for ASMS ratio (%) n = 1: replicate n = 1; for ASMS ratio (%) n = 1 / ASMS ratio (%) n = 2: ASMS Ratio(%)=(A−C)/B×100; for ASMS ratio (%) n = 2: replicate n = 2
Method in brief: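 Readout is ASMS Ratio (%), (A−C)/B×100, from reversed-phase LC/MS of SEC-passed extracts, with protein-free unfiltered standard (B) and protein-free SEC blank (C). Recombinant human Bcl-2 at 20 μM final met ~1200 pooled compounds at […] each for 1 h, 23° C., dark, in Tris-HCl pH 7.4 buffer.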

[1] = AS-MS on the mixture of 1200 library compounds
[2] = AS-MS, mixture of 1200 compounds, Bcl-2

T1 sequence (P10415 whole entry): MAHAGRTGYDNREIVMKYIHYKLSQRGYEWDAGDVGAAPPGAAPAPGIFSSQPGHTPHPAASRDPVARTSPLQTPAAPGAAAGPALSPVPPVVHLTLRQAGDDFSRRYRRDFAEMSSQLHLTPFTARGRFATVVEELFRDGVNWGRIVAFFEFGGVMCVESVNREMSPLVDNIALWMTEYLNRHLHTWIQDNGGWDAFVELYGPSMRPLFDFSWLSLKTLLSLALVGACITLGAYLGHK

Molecule: CCOc1cccc(-c2ccc(C(=O)N3CCN(c4ccc(C(=O)NS(=O)(=O)CC56CC7CC(CC(C7)C5)C6)cc4)CC3)c3ccccc23)c1 [B2A035-01, N-(1-Adamantylmethylsulfonyl)-4-[4-[4-(3-ethoxyphenyl)naphthalene-1-carbonyl]piperazin-1-yl]benzamide]
- ASMS ratio (%) n = 1 (AS-MS, mixture library, Bcl-2): 6.2%
- ASMS ratio (%) n = 2 (AS-MS, mixture library, Bcl-2): −9.8%

Molecule: CCOc1cncc(-c2cnn(-c3cc(C(=O)N4CCN(c5ccc(C(=O)Nc6ccc(OC)cc6)cc5)CC4)cc(C(F)(F)F)c3)c2)c1 [B1O044-01, 4-[4-[3-[4-(5-Ethoxypyridin-3-yl)pyrazol-1-yl]-5-(trifluoromethyl)benzoyl]piperazin-1-yl]-N-(4-methoxyphenyl)benzamide]
- ASMS ratio (%) n = 1 [1]: 5.8%
- ASMS ratio (%) n = 2 [1]: 0.4%

Molecule: 4-[4-[[4-(3-Ethoxyphenyl)thiophen-2-yl]methyl]piperazin-1-yl]-N-propylbenzamide [B1M048-01]
- ASMS ratio (%) n = 1 [2]: 0.9%
- ASMS ratio (%) n = 2 [2]: 0.3%

Molecule: 4-[4-[3-[4-(3-Ethoxyphenyl)pyrazol-1-yl]-5-(trifluoromethyl)benzoyl]piperazin-1-yl]-N-propylbenzamide [B1M025-01]
- ASMS ratio (%) n = 1 [2]: 3.6%
- ASMS ratio (%) n = 2 [2]: −1.2%

Molecule: 6-[4-[[4-(5-Ethoxypyridin-3-yl)thiophen-2-yl]methyl]piperazin-1-yl]-N-propylpyridazine-3-carboxamide [B1M051-01]
- ASMS ratio (%) n = 1 [2]: 0.7%
- ASMS ratio (%) n = 2 [2]: 1.9%

Molecule: CCOc1cccc(-c2ccc(CN3CCN(c4ccc(C(=O)Nc5ccc(OC)cc5)cc4)CC3)cc2F)c1 [B1O051-01, 4-[4-[[4-(3-Ethoxyphenyl)-3-fluorophenyl]methyl]piperazin-1-yl]-N-(4-methoxyphenyl)benzamide]
- ASMS ratio (%) n = 1 [1]: 3.9%
- ASMS ratio (%) n = 2 [1]: −1.9%

Molecule: CCOc1cccc(-c2ccc(CN3CCN(c4ccc(C(=O)NS(=O)(=O)CC56CC7CC(CC(C7)C5)C6)nn4)CC3)cc2C)c1 [B2A073-01, N-(1-Adamantylmethylsulfonyl)-6-[4-[[4-(3-ethoxyphenyl)-3-methylphenyl]methyl]piperazin-1-yl]pyridazine-3-carboxamide]
- ASMS ratio (%) n = 1 (AS-MS, mixture library, Bcl-2): 16.2%
- ASMS ratio (%) n = 2 (AS-MS, mixture library, Bcl-2): 13.5%

Molecule: CCOc1cncc(C#Cc2cncc(C(=O)N3CCN(c4ccc(C(=O)NS(=O)(=O)CC56CC7CC(CC(C7)C5)C6)cc4)CC3)c2)c1 [B2A032-01, N-(1-Adamantylmethylsulfonyl)-4-[4-[5-[2-(5-ethoxypyridin-3-yl)ethynyl]pyridine-3-carbonyl]piperazin-1-yl]benzamide]
- ASMS ratio (%) n = 1 (AS-MS, mixture library, Bcl-2): 0.0%
- ASMS ratio (%) n = 2 (AS-MS, mixture library, Bcl-2): 0.0%

Molecule: CCOc1cncc(-c2ccc(C(=O)N3CCN(c4ccc(C(=O)NCC(F)(F)F)cc4)CC3)c3ccccc23)c1 [B1K036-01, 4-[4-[4-(5-Ethoxypyridin-3-yl)naphthalene-1-carbonyl]piperazin-1-yl]-N-(2,2,2-trifluoroethyl)benzamide]
- ASMS ratio (%) n = 1 [2]: 1.1%
- ASMS ratio (%) n = 2 [2]: −0.4%

Molecule: CCOc1cncc(-c2cc(C(=O)N3CCN(c4ccc(C(=O)Nc5ccc(OC)cc5)nn4)CC3)cc(C(C)(C)C)c2)c1 [B1O016-01, 6-[4-[3-tert-Butyl-5-(5-ethoxypyridin-3-yl)benzoyl]piperazin-1-yl]-N-(4-methoxyphenyl)pyridazine-3-carboxamide]
- ASMS ratio (%) n = 1 [1]: 6.6%
- ASMS ratio (%) n = 2 [1]: 0.7%

Molecule: CCOc1cncc(-c2ccc(CN3CCN(c4ccc(C(=O)Nc5ccc(OC)cc5)cc4)CC3)c3ccccc23)c1 [B1O066-01, 4-[4-[[4-(5-Ethoxypyridin-3-yl)naphthalen-1-yl]methyl]piperazin-1-yl]-N-(4-methoxyphenyl)benzamide]
- ASMS ratio (%) n = 1 [1]: 12.1%
- ASMS ratio (%) n = 2 [1]: 2.7%

Molecule: CCOc1cncc(-c2ccc(C(=O)N3CCN(c4ccc(C(=O)NCC(F)(F)F)cc4)CC3)cc2C)c1 [B1K026-01, 4-[4-[4-(5-Ethoxypyridin-3-yl)-3-methylbenzoyl]piperazin-1-yl]-N-(2,2,2-trifluoroethyl)benzamide]
- ASMS ratio (%) n = 1 [2]: 4.2%
- ASMS ratio (%) n = 2 [2]: 0.2%

Molecule: CCOc1cncc(-c2csc(CN3CCN(c4ccc(C(=O)NCC(F)(F)F)cc4)CC3)c2)c1 [B1K068-01, 4-[4-[[4-(5-Ethoxypyridin-3-yl)thiophen-2-yl]methyl]piperazin-1-yl]-N-(2,2,2-trifluoroethyl)benzamide]
- ASMS ratio (%) n = 1 [2]: 2.6%
- ASMS ratio (%) n = 2 [2]: −1.4%

Molecule: CCOc1cncc(-c2csc(CN3CCN(c4ccc(C(=O)NS(=O)(=O)C(C)(C)C)cc4)CC3)c2)c1 [B2L068-01, N-tert-Butylsulfonyl-4-[4-[[4-(5-ethoxypyridin-3-yl)thiophen-2-yl]methyl]piperazin-1-yl]benzamide]
- ASMS ratio (%) (n = 1): 0.0%
- ASMS ratio (%) (n = 2): 0.0%

Molecule: CCOc1cncc(-c2ccccc2CCC(=O)N2CCN(c3ccc(C(=O)NCC(F)(F)F)cc3)CC2)c1 [B1K034-01, 4-[4-[3-[2-(5-Ethoxypyridin-3-yl)phenyl]propanoyl]piperazin-1-yl]-N-(2,2,2-trifluoroethyl)benzamide]
- ASMS ratio (%) n = 1 [2]: −0.3%
- ASMS ratio (%) n = 2 [2]: 0.0%

Continued, values first:

- ASMS ratio (%) n = 1 [1]: 0.0%
- ASMS ratio (%) n = 2 [1]: 0.0%
Molecule: CCOc1cccc(C#Cc2ccccc2C(=O)N2CCN(c3ccc(C(=O)N(C)CC45CC6CC(CC(C6)C4)C5)cc3)CC2)c1 [B3A029-01, N-(1-Adamantylmethyl)-4-[4-[2-[2-(3-ethoxyphenyl)ethynyl]benzoyl]piperazin-1-yl]-N-methylbenzamide]

- ASMS ratio (%) n = 1 (AS-MS, mixture library, Bcl-2): −0.2%
- ASMS ratio (%) n = 2 (AS-MS, mixture library, Bcl-2): −374.2%
Molecule: CCOc1cncc(C#Cc2cncc(C(=O)N3CCN(c4ccc(C(=O)NS(=O)(=O)c5ccc(NCCSc6ccccc6)c([N+](=O)[O-])c5)cc4)CC3)c2)c1 [B2Q032-01, 4-[4-[5-[2-(5-Ethoxypyridin-3-yl)ethynyl]pyridine-3-carbonyl]piperazin-1-yl]-N-[3-nitro-4-(2-phenylsulfanylethylamino)phenyl]sulfonylbenzamide]

- ASMS ratio (%) n = 1 (AS-MS, mixture library, Bcl-2): 9.0%
- ASMS ratio (%) n = 2 (AS-MS, mixture library, Bcl-2): −8.3%
Molecule: CCOc1cccc(-c2cc(CN3CCN(c4ccc(C(=O)NS(=O)(=O)c5ccc(NCCSc6ccccc6)c([N+](=O)[O-])c5)cc4)CC3)cc(OCC)c2)c1 [B2Q055-01, 4-[4-[[3-Ethoxy-5-(3-ethoxyphenyl)phenyl]methyl]piperazin-1-yl]-N-[3-nitro-4-(2-phenylsulfanylethylamino)phenyl]sulfonylbenzamide]

- ASMS ratio (%) (n = 1): 18.0%
- ASMS ratio (%) (n = 2): 0.0%
Molecule: CCOc1cccc(C#Cc2cc(C(=O)N3CCN(c4ccc(C(=O)NS(=O)(=O)c5ccc(NCCSc6ccccc6)c(C(F)(F)F)c5)cc4)CC3)cc(C(F)(F)F)c2)c1 [B2R041-01, 4-[4-[3-[2-(3-Ethoxyphenyl)ethynyl]-5-(trifluoromethyl)benzoyl]piperazin-1-yl]-N-[4-(2-phenylsulfanylethylamino)-3-(trifluoromethyl)phenyl]sulfonylbenzamide]

- ASMS ratio (%) (n = 1): 0.2%
- ASMS ratio (%) (n = 2): 1.4%
Molecule: CCOc1cncc(-c2cnn(-c3cc(C(=O)N4CCN(c5ccc(C(=O)NS(=O)(=O)CCC(F)(F)F)cc5)CC4)cc(C(F)(F)F)c3)c2)c1 [B2N044-01, 4-[4-[3-[4-(5-Ethoxypyridin-3-yl)pyrazol-1-yl]-5-(trifluoromethyl)benzoyl]piperazin-1-yl]-N-(3,3,3-trifluoropropylsulfonyl)benzamide]

- ASMS ratio (%) n = 1 [1]: 0.0%
- ASMS ratio (%) n = 2 [1]: 0.0%
Molecule: CCOc1cccc(-c2csc(C(=O)N3CCN(c4ccc(C(=O)N(CC)CC)nn4)CC3)c2)c1 [B4J001-01, 6-[4-[4-(3-Ethoxyphenyl)thiophene-2-carbonyl]piperazin-1-yl]-N,N-diethylpyridazine-3-carboxamide]

- ASMS ratio (%) n = 1 (AS-MS, mixture library, Bcl-2): 10.7%
- ASMS ratio (%) n = 2 (AS-MS, mixture library, Bcl-2): 8.7%
Molecule: CCOc1cncc(-c2ccc(C(=O)N3CCN(c4ccc(C(=O)NS(=O)(=O)c5ccc(NCCSc6ccccc6)c([N+](=O)[O-])c5)nn4)CC3)cc2C)c1 [B2Q004-01, 6-[4-[4-(5-Ethoxypyridin-3-yl)-3-methylbenzoyl]piperazin-1-yl]-N-[3-nitro-4-(2-phenylsulfanylethylamino)phenyl]sulfonylpyridazine-3-carboxamide]

- ASMS ratio (%) (n = 1): 0.0%
- ASMS ratio (%) (n = 2): 0.0%
Molecule: CCOc1cncc(-c2csc(CN3CCN(c4ccc(C(=O)NS(=O)(=O)CCC(F)(F)F)nn4)CC3)c2)c1 [B2N094-01, 6-[4-[[4-(5-Ethoxypyridin-3-yl)thiophen-2-yl]methyl]piperazin-1-yl]-N-(3,3,3-trifluoropropylsulfonyl)pyridazine-3-carboxamide]

- ASMS ratio (%) (n = 1): 3.9%
- ASMS ratio (%) (n = 2): 19.7%
Molecule: CCOc1cncc(-c2ccc(CN3CCN(c4ccc(C(=O)NS(=O)(=O)c5ccc(NCCSc6ccccc6)c(C(F)(F)F)c5)nn4)CC3)c(CC)c2)c1 [B2R076-01, 6-[4-[[4-(5-Ethoxypyridin-3-yl)-2-ethylphenyl]methyl]piperazin-1-yl]-N-[4-(2-phenylsulfanylethylamino)-3-(trifluoromethyl)phenyl]sulfonylpyridazine-3-carboxamide]

- ASMS ratio (%) n = 1 (AS-MS, mixture library, Bcl-2): 0.0%
- ASMS ratio (%) n = 2 (AS-MS, mixture library, Bcl-2): 0.0%
Molecule: CCOc1cccc(-c2csc(C(=O)N3CCN(c4ccc(C(=O)NS(=O)(=O)c5ccc(NCCSc6ccccc6)c([N+](=O)[O-])c5)nn4)CC3)c2)c1 [B2Q001-01, 6-[4-[4-(3-Ethoxyphenyl)thiophene-2-carbonyl]piperazin-1-yl]-N-[3-nitro-4-(2-phenylsulfanylethylamino)phenyl]sulfonylpyridazine-3-carboxamide]

— US20240132431A1, “METHOD FOR ALKYLATING ACIDIC FUNCTIONAL GROUP” (Chugai Seiyaku Kabushiki Kaisha, priority 2021, published 2024)
